In patent US8372380B2, “In vivo imaging of sulfotransferases” (The Regents of the University of California, priority 2007, dated 2013):
Each block holds one compound with its values, some of them ahead of it.

What was measured:
sulfotransferase SULT1A1 [1] = molecular target: T1, sulfotransferase SULT1A1 (Rattus norvegicus, UniProt P17988); assay: In vivo microPET imaging of sulfotransferase activity and inhibition in rat; parameters: species or system Sprague-Dawley rat
T1 construct: from tissue; host or cells: living Sprague-Dawley rat (brain, chest, abdomen)
T1 sequence (P17988 whole entry): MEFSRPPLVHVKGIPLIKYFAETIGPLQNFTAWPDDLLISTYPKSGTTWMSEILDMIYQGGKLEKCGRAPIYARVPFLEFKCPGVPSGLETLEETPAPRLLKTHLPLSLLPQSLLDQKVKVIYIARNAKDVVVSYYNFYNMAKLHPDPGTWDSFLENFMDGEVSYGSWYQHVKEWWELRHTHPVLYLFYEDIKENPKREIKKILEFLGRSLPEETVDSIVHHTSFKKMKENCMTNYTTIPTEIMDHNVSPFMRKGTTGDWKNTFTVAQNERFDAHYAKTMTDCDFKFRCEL
Procedure: (§1) A bolus of a radiolabeled tracer is administered intravenously to a non-human primate, rodent, or other non-human mammal, and the distribution of tracer transport activity is followed by radiographic means, e.g., PET, microPET and/or SPECT. For PET, an intravenous dose of the tracer contains ˜0.1-3 mCi/kg (body weight) dissolved in <1 ml of 10% ethanol in saline. The identity of each organ and tissue taking up the tracer can be confirmed by CT scans. Scans can be conducted both with and without administering one or more pharmacological agents, e.g., 2,6-dichloro-4-nitrophenol, quercitin, curcumin, etc.
FIG. 7 depicts in vivo microPET imaging of sulfotransferase activity and inhibition in a male, Sprague-Dawley rat suffering from renal hypertension, chronic progressive nephropathy, and lung inflammation, using 4-[^18F]-fluoro-3-nitrophenol as a substrate and 2,6-dichloro-4-nitrophenol as an inhibitor. 4-[^18F]-fluoro-3-nitrophenol was administered as a bolus injection (0.5 to 2.0 mCi) and the rat brain was scanned dynamically for 60 min. Subsequently, the chest was scanned for 5 min., followed by a 5 min. scan of the abdomen.

sulfotransferase SULT1E1 [2] = assay: In vivo microPET imaging of SULT1E1 expression in rats; parameters: species or system Sprague-Dawley rats; conditions: images 15-25 min after injection
Procedure: as §1
(§2) FIG. 5 depicts in vivo microPET imaging of sulfotransferase SULT1E1 expression in healthy and inflamed lungs in 8-9 month old male Sprague-Dawley rats, using the substrate 2-(4′-([^11C]-methylamino)phenyl)-6-hydroxybenzothiazole. On the left are shown the chest and upper abdomen of a healthy control rat; on the right is a rat suffering from renal hypertension, chronic progressive nephropathy, and lung inflammation. Both animals were injected with 2.0-2.5 mCi of activity. The images shown were acquired over the period of 15-25 min after injection. […] Warmer colors represent higher levels of tracer uptake.

[3] = rat brain; Mathis et al., 2004; cited from earlier work
SULT1A1 = molecular target: T2, SULT1A1 (Homo sapiens, UniProt P50225); assay: Substrate sulfonation assay, SULT1A1; format: biochemical; conditions: in vitro sulfonation
T2 construct: purchased Sigma; host or cells: sf-9 insect cells (baculovirus)
T2 sequence (P50225 whole entry): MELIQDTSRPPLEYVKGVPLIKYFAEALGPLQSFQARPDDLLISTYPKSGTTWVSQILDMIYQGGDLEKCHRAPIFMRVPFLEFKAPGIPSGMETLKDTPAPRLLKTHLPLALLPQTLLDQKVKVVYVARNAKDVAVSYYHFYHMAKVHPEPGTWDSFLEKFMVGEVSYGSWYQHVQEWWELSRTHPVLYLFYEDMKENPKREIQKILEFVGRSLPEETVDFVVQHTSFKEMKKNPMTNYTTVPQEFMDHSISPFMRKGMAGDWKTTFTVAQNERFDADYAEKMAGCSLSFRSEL
Source text: (§3) β-Naphthol (BN, a reference control), para-nitrophenol (PNP), estradiol (E2), dehydroepiandrosterone (DHEA), dopamine, dithiothreitol (DTT), and MgCl2 were purchased from Sigma (St. Louis, Mo.). Cytosolic extract of sf-9 insect cells infected with a baculovirus containing SULT cDNAs (SULT1A1, SULT1A3, SULT1E1, SULT2A1) were also purchased from Sigma. [^35S]-3′-Phosphoadenosine 5′-Phosphosulfate (PAPS)(1-3 Ci/mmol) was purchased from Perkin Elmer (Waltham, Mass.). Aluminum-backed silica TLC plates were purchased from Whatman.
(§4) Substrate sulfonation assays were performed using cytosolic sulfotransferases SULT1A1, SULT1A3, SULT1E1, and SULT2A1. Enzyme kinetic parameters were determined by using substrate concentration curves. The sulfonation reaction was carried out using [^35S]-PAPS as the sulfate donor, and the reaction mixture was analyzed using a thin-layer chromatography (TLC) method described in literature (Falany et al., 2006). […] TLC plates were exposed on digital autoradiography plates for 2 hrs and read in with a Fuji BAS-5000 digital autoradiography plate reader. The results were quantitated with the software provided with the scanner. […] Vials were counted using MP-Ecolite+ LS fluid and a Packard Tricarb 2300TR LSC for 5 min per vial. Reactions were monitored for linearity with time and enzyme concentration to ensure the enzyme was the limiting factor. […]

sulfotransferase SULT1E1 [4] = molecular target: T3, sulfotransferase SULT1E1 (Homo sapiens, UniProt P49888); assay: In vivo PET imaging of SULT1E1 expression in humans; conditions: PET 20-45 minutes after injection
T3 construct: from tissue; host or cells: living human subjects (lungs, liver, kidneys)
T3 sequence (P49888 1-294): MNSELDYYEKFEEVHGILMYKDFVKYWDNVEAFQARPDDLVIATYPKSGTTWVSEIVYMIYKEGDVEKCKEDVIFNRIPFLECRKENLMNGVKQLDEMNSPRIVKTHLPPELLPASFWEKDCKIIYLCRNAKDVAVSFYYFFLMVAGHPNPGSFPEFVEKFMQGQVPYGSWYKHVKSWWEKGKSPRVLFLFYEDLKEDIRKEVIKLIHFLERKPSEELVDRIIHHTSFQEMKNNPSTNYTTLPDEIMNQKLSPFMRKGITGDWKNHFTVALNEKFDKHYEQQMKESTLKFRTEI
Procedure: A bolus of a radiolabeled tracer is administered to a human subject by intravenous injection, and its uptake into a tumor (in the case of cancer), one or more organs of interest, and/or other tissues of the body is followed radiographically. For a 50-70 kg person, 10 mCi of an appropriate tracer from Table 1 or 2 (e.g.) is dissolved in <10 ml 10% ethanol in saline and is injected intravenously, and the distribution of the tracer is followed dynamically with PET for up to 2 hours (multiple whole-body scans at different time intervals or dynamic PET scan of a specific organ). SULT activity in organs and tissues is determined using tracer kinetic modeling from the PET determined tracer uptake data. The anatomical location of tracer uptake in both normal subjects and cancer patients can be determined using CT scans.
FIG. 6 depicts in vivo PET imaging of sulfotransferase SULT1E1 expression in two adult male humans. […] Increased SULT1E1 expression associated with lung inflammation caused by smoking is clearly visible in the lungs of the smoker. Both subjects were scanned with PET 20-45 minutes after being injected with the tracer 2-(4′-([^11C]-methylamino)phenyl)-6-hydroxybenzothiazole. The smoker received a dose of 10.5 mCi, and the non-smoker received 10.0 mCi. The images were normalized by dividing the signal values with dose injected per kg of body weight.

[5] = Plasma metabolite analysis of tracer in rats; format: in vivo, Sprague-Dawley rats; conditions: rat plasma, after 10-15 min
Procedure: as §2
Metabolite analysis was performed using reverse phase C-18 TLC plates and a mixture of methanol, acetic acid and water (80:5:15, respectively). Plasma was de-proteinated with addition of an equal volume of methanol. The supernatant was spotted on the plates and the plates developed in the mobile phase. The analysis of the plates was performed as described above in the description of the sulfonation assays (Ex. 1-25). Metabolites were identified as follows: […] samples of plasma were mixed with 500-1000 U of either […] (to remove the sulfonated metabolite) or glucoronidase (to remove glucoronidated metabolite). […] The supernatants were analyzed as described above and the results compared with the results for un-treated plasma.

SULT1E1 = molecular target: T4, SULT1E1 (Homo sapiens, UniProt P49888); assay: Substrate sulfonation assay, SULT1E1; format: biochemical; conditions: in vitro sulfonation
T4 construct: purchased Sigma; host or cells: sf-9 insect cells (baculovirus)
T4 sequence (P49888 1-294): T3 sequence (P49888 1-294)
Source text: as §3, §4

sulfotransferase SULT1A1 [6] = molecular target: T5, sulfotransferase SULT1A1 (Homo sapiens, UniProt P50225); assay: Inhibition of SULT1A1 sulfonation of para-nitrophenol (PNP); format: biochemical; conditions: inhibition of SULT1A1 sulfonation of 4-nitrophenol; 37° C., 15 min, [35S]-PAPS
T5 construct: purchased Sigma; host or cells: sf-9 insect cells (baculovirus)
T5 sequence (P50225 whole entry): as the sequence (P50225 whole entry) above
Source text: as §3
Substrate sulfonation assays were performed using cytosolic sulfotransferases SULT1A1, SULT1A3, SULT1E1, and SULT2A1. Enzyme kinetic parameters were determined by using substrate concentration curves. The sulfonation reaction was carried out using [^35S]-PAPS as the sulfate donor, and the reaction mixture was analyzed using a thin-layer chromatography (TLC) method described in literature (Falany et al., 2006). Reaction mixtures consisted of 10 μL of substrates, originally dissolved in dimethyl sulfoxide and diluted to 1% with Tris-HCl buffer; 50 mM Tris-HCl buffer, pH 7.4; 0.1% bovine serum albumin; 7.5 mM DTT; and 1 μM [^35S]-PAPS in the final volume of 50 μL. The final concentration of dimethyl sulfoxide was kept at 0.2%. Reactions with SULT1E1 and SULT2A1 were supplemented with 7 mM MgCl2; reactions with SULT1A3 included 1 mM pargyline. Control reactions were performed under identical conditions without addition of substrates. Sulfonation reactions were carried out at 37° C. for 15 min. Enzymatic activity was terminated by precipitation with 50 μL of ice cold methanol and cooling the mixture at −20° C. Subsequently, 20 μL aliquots of the supernatant were spotted on silica gel TLC plates and were developed in t-butanol:acetic acid:water (8:1:1 by volume). Sulfonated products (Rf=0.66±0.05) were well separated from unreacted [^35S]PAPS, which was retained at the origin. TLC plates were exposed on digital autoradiography plates for 2 hrs and read in with a Fuji BAS-5000 digital autoradiography plate reader. The results were quantitated with the software provided with the scanner. Spots were localized and the silica gel was scraped into liquid scintillation vials. Vials were counted using MP-Ecolite+ LS fluid and a Packard Tricarb 2300TR LSC for 5 min per vial. Reactions were monitored for linearity with time and enzyme concentration to ensure the enzyme was the limiting factor.
In vitro inhibition reactions were performed using the standard SULT1A1 substrate, para-nitrophenol (PNP), against various 4′-substituted 2-phenyl-6-hydroxybenzothiazoles shown in Table 3. PNP was dissolved in 50 mM Tris-HCl buffer (pH 7.4), and inhibitors were dissolved in dimethyl sulfoxide and diluted to 1% dimethyl sulfoxide concentration with the Tris-HCl buffer. […]

brain SULT1A enzymes = conditions: Vietri et al., 2002b, read-out: IC50 for blocking sulfonation of R(−)-apomorphine; cited from earlier work

Structure (SMILES): O=[N+]([O-])c1cc(Cl)c(O)c(Cl)c1 [2,6-dichloro-4-nitrophenol]
- effect on SULT1A1 activity in vivo (microPET) (sulfotransferase SULT1A1 [1]; 5 mg/Kg at the time of the 4-[18F]-fluoro-3-nitrophenol bolus injection): inhibitory effect on SULT1A1 activity

Structure (SMILES): O=[N+]([O-])c1cc(O)ccc1[18F] [4-[^18F]-fluoro-3-nitrophenol, 4-[^18F]Fluoro-3-nitrophenol]
- substrate for SULT1A1 in vivo (microPET) (sulfotransferase SULT1A1 [1]; rat, bolus injection 0.5 to 2.0 mCi): is a substrate for the sulfotransferase SULT1A1

Structure (SMILES): COc1ccc(-c2nc3ccc(O)cc3s2)cc1 [Compound 17]
- Ki (sulfotransferase SULT1A1 [6]): 24 ± 2 nM

Structure (SMILES): Oc1ccc2nc(-c3ccc(F)cc3)sc2c1 [Compound 19]
- Ki (sulfotransferase SULT1A1 [6]): 140 ± 10 nM

Structure (SMILES): O=c1c(O)c(-c2ccc(O)c(O)c2)oc2cc(O)cc(O)c12 [quercitin]
- IC50 (brain SULT1A enzymes): 16 ± 2.3 nM

Second part, led by results:

- tracer uptake in lungs (sulfotransferase SULT1E1 [2]; healthy control rat): indistinguishable from the background
- tracer uptake in lungs (sulfotransferase SULT1E1 [2]; rat with lung inflammation): increased uptake
- tracer activity in liver (sulfotransferase SULT1E1 [2]; rats): high level of activity
- substrate for SULT1A1 (SULT1A1): not a substrate for SULT1A1
- tracer activity in liver and kidneys (sulfotransferase SULT1E1 [4]): high level of activity
- fraction of tracer in sulfated form in plasma [5]: ~90%
Structure (SMILES): [11CH3]Nc1ccc(-c2nc3ccc(O)cc3s2)cc1 [2-(4′-([^11C]-methylamino)phenyl)-6-hydroxybenzothiazole]
- sulfonation in brain in vivo [3]: sulfonated in the rat brain in vivo
- tracer uptake in lungs (sulfotransferase SULT1E1 [4]; versus background (muscles)): increased level of uptake compared with the background
- substrate for SULT1E1 (SULT1E1): good marker of sulfotransferases, most specifically SULT1E1

- Ki (sulfotransferase SULT1A1 [6]): 5.1 ± 0.3 nM
Structure (SMILES): CNc1ccc(-c2nc3ccc(O)cc3s2)cc1 [Compound 14]

- Ki (sulfotransferase SULT1A1 [6]): 100 ± 20 nM
Structure (SMILES): CC(=O)Nc1ccc(-c2nc3ccc(O)cc3s2)cc1 [Compound 18]
